Measured values: patent US20230050846A1, “TREATMENT OF HEPATIC AND CARDIOVASCULAR DISORDERS” (LIFESEARCH, priority 2019, published 2023)
Peptide text beside a SMILES is read from it. * marks the point of attachment. Palmitoyl = CCCCCCCCCCCCCCCC(=O)*

Assays:
[1] = biological target: T1, ecto-F1-ATPase (HepG2 cells) (Homo sapiens, UniProt P06576); experiment: ecto-F1-ATPase activity: extracellular ADP content, luciferin-luciferase assay; assay type: cell-based; settings: HepG2, 5 min; for extracellular ADP concentration (ecto-F1-ATPase hydrolytic activity): peptide 0.1 to 5 μM (formula (I)) or 1 μM, effect blunted by IF1 1 μM
T1 construct: host or cells: HepG2
Method: The human hepatocyte cell line HepG2 was obtained from the American Type Culture Collection (#HB-8065). HepG2 were cultured in Dulbecco's Modified Eagle's Medium (DMEM)—high glucose (D0822, Sigma-Aldrich) supplemented with 10% fetal bovine serum (10270098, Life technologies), 1% Penicillin-Streptomycin solution (P0781, Sigma-Aldrich). HepG2 cells were seeded on 24-well plates at 75,000 cells/well (Day 0). After 24 hours of growing, cells were serum starved for 24 h in order to synchronize cell cycles (Day 1) and then replaced additional 24 h in complete cell growth medium (Day 2). On day 3, cells were washed and equilibrated in fresh DMEM—high glucose without red phenol for 1 h (D1145, Sigma-Aldrich).
The cells were then treated 5 min with different concentration of peptide of formula (I) (0.1 to 5 μM), the peptide of formula (II) (1 μM), SCR (1 μM), SCR-K-16 (1 μM) or apoA-I (10 μg/mL) purified from human plasma.
Specific ecto-F1-ATPase activation was assessed in the presence of IF1 protein (1 μM), a natural inhibitor of F1-ATPase that interacts with the β-subunit to inhibit the ATP hydrolysis activity [5].
Supernatants were then collected and centrifuged (10,000 g, 5 min, 4° C.) and processed for ADP and ATP measurement. For ADP measurement, ADP was converted into ATP in 150 mM NaCl, 5 mM KCl, 2 mM MgCl2, pH 7.5 buffer containing 0.5 mM phosphoenolpyruvate (PEP) and pyruvate kinase (PK, 6 U per point for 15 min at 37° C.). For ATP measurement, 100 μl of sample was analyzed using the ATP bioluminescence assay kit CLS II (Roche Diagnostics). Samples were added to the ATP assay mixture and luminescence was measured in a microplate reader Infinite F500 (Tecan, Switzerland) for 1000 ms. The ATP standard curve was produced in the same medium as the samples and in the 10^−5 to 10^−10 M concentration range. The ADP concentration was then calculated as the ATP concentration following ADP conversion minus the basal ATP concentration. Data are expressed as nanomoles of ADP produced.

[2] = tested on: C57B/L6J mice fed western-diet; experiment: Western diet-induced hepatic steatosis mouse model; assay type: in vivo; settings: ip daily 1 mg/kg/day
Method: Wild-type C57B/L6J male mice were purchased from Janvier Labs (Le Genest Saint Isle, France). Mice were caged in animal rooms under specific pathogen free conditions at the animal facility of Rangueil (Anexplo platform, US006, Toulouse, France) with a light/dark schedule of 12 h/12 h. At the initiation of the dietary intervention, all animals were 8 weeks old and were fed ad libitum with a normal chow diet (#V1535 R/M-H, Ssniff, Germany). All animal experimental procedures were conducted in accordance with institutional guidelines on animal experimentation approved by the local ethical committee of animal care and are conformed to the guidelines from Directive 2010/63/EU of the European Parliament on the protection of animals used for scientific purposes or the NIH guideline.
8 weeks old mice were fed fed western-diet for 4-weeks (Envigo #TD.88137 containing 0.2% cholesterol, 42% kcal from fat, 34% sucrose by weight). For the 2 last weeks of the 4-week period, mice were daily intraperitoneally administrated at 1 mg/kg/day with the peptide of formula (I) or PBS (control group). Following the treatment period, mice were fasted overnight, anesthetized by intra-peritoneal injection of ketamine and xylazine hydrochloride then killed by exsanguination. Body weight, liver triglyceride content, plasma lipids and transaminases were determined at sacrifice.
100 mg of liver tissue were homogenized in 900 μL of phosphate buffer pH 7.4 until complete tissue lysis. Lipids were extracted by mixing 125 μL of lysates with 1 mL of CHCl3:MeOH (2:1). After centrifugation, the chloroform phase was evaporated under nitrogen flux, and the dried residue was solubilized in 200 μL of isopropanol. Triglycerides were measured using commercial kits based on GPO-PAP detection method (Biolabo SA, Maizy, France). Results were expressed as mg of triglycerides/g liver.
Triglycerides and cholesterol levels were determined using commercial colorimetric kits (Biolabo SA, Maizy, France) based on CHOD-PAP and GPO-PAP detection methods, coupling enzymatic reaction and spectrophotometric detection of reaction end products. Alanine-aminotransferase (ALT) and aspartate-aminotransferase (AST) levels were determined using a COBAS-MIRA+ biochemical analyser (Anexplo facility, Toulouse, France).
Blood glucose levels were measured by tail vein sampling with portable glucometer (Accu-check, Roche) 30 min before oral glucose load and at 0, 15, 30, 45, 60, 90 and 120 min after oral glucose load. Plasma insulin concentration was determined 30 min before and 15 min after glucose loading in 5 μL of plasma using an ELISA kit (Mercodia, Uppsala, Sweden) according to the manufacturer's instructions.

wild-type C57B/L6J mice = experiment: Femoral artery blood flow in conscious mice; assay type: in vivo, mouse; settings: data not shown
From the text: According to the protocol disclosed in [5], the peptide of formula (I) increased femoral artery blood flow in conscious wild-type C57B/L6J mice in a process that strictly depend on endothelial NO production (data not shown).

Row | extracellular ADP concentration (ecto-F1-ATPase hydrolytic activity) [1] | concentration at which maximum efficacy on extracellular ADP is reached [1] | Compound | oral glucose tolerance (OGTT) ([2]; OGTT 10 days after initiation) | basal insulin level ([2]; p<0.05 vs PBS) | plasma HDL-cholesterol (HDL-C) level ([2]; two weeks) | plasma triglycerides level ([2]; two weeks) | liver/body weight ratio ([2]; two weeks, p<0.01 vs PBS) | hepatic triglyceride concentration ([2]; two weeks, p<0.05 vs PBS) | plasma ALT level ([2]; two weeks, p<0.05 vs PBS) | plasma level of total cholesterol ([2]; two weeks, p<0.05 vs PBS) | hepatic steatosis ([2]; two weeks, vs PBS) | femoral artery blood flow (wild-type C57B/L6J mice)
1 | stimulated | – | CCCCCCCCCCCCCCCC(=O)NCCCC[C@H](NC(=O)[C@H](CCC(=O)O)NC(=O)[C@H](CCCNC(=N)N)NC(=O)[C@H](CO)NC(=O)[C@H](CCC(N)=O)NC(=O)[C@H](C)NC(=O)[C@H](CCCNC(=N)N)NC(=O)[C@H](Cc1ccccc1)NC(=O)[C@H](Cc1ccc(O)cc1)NC(=O)[C@H](CCCNC(=N)N)NC(=O)[C@H](CCC(=O)O)NC(=O)[C@H](CCC(=O)O)NC(=O)[C@H](CCC(=O)O)NC(=O)[C@H](C)NC(=O)[C@H](CCC(N)=O)NC(=O)[C@H](CCC(=O)O)NC(=O)[C@H](CCCNC(=N)N)NC(=O)[C@H](CCCCN)NC(=O)CNC(=O)[C@H](Cc1ccccc1)NC(=O)[C@H](C)NC(=O)CNC(=O)CNC(=O)[C@H](C)NC(=O)[C@H](CCC(=O)O)NC(=O)[C@H](CCCNC(=N)N)NC(=O)[C@@H](NC(=O)[C@H](CO)NC(=O)CNC(=O)[C@H](C)NC(=O)CNC(=O)[C@H](CCCNC(=N)N)NC(C)=O)[C@@H](C)CC)C(N)=O [peptide of formula (II), CH3CO-[SEQ ID NO: 1]-K-[palmitoyl]-NH2] (Ac-RGAGSIREAGGAFGKREQAEEERYFRAQSREK(Palmitoyl)-NH2) | improved | decreased | no effect | no effect | decrease | reduction | significantly reduced | significantly decrease | significantly reduced | –
2 | increased | 1 µM | Ac-RGAGSIREAGGAFGKREQAEEERYFRAQSRE-NH2 [peptide of formula (I), CH3CO-[SEQ ID NO: 1]-NH2] | – | – | – | – | – | – | – | – | – | increased
